Data published in patent US20250161287A1, “METHODS, COMPOSITIONS, AND COMBINATIONS FOR PREVENTING OR TREATING CANCER RECURRENCE” (VUJA DE SCIENCES, INC., priority 2022, published 2025).
“Also recorded” adds a separate entry of the source. Like-named read-outs stand apart in the source and are kept apart here.

Key:
[1] = system: MG63.3 OS cell line; assay: in vitro 3D BME assay with MG63.3 OS cell line; assay type: cell-based, human; conditions: for activity on 3D BME compared with 2D: MG63.3, 3D BME vs 2D MTT 72 h
Source text: (§1) 3D basement membrane extract (BME) assay was developed at the NCI Barkan (D. Barkan et al. 2008; Dalit Barkan and Green 2011; Hen and Barkan 2020). BME is purified from Engelbreth-Holm-Swarm (EHS) tumor, primarily made up of laminin, collagen IV, entactin, and heparin sulfate proteoglycans (Cultrex Reduced Growth Factor Basement Membrane Extract, PathClear n.d.), which allows it to more accurately reflect the 3D extracellular environment in the body.
(§2) Initially >150 selected therapeutic agents were tested on BME based on the likelihood for either a positive effect or a […] negative effect (as negative controls). […] These therapeutic agents were also tested in dose response (as broad as 1 pM-100 μM) for 2D cytotoxicity (MTT) and the IC50 was calculated. Where required, the hits from the initial screen were also further characterized at additional doses <100 nM in order to further determine the relative selectivity compared to the 2D IC50.
(§3) The influence of drug exposure on the metastatic phenotype was assessed in an in vitro assay of ME and escape from dormancy using a 3D BME assay as previously reported, which was adapted for use with OS cells.
(§4) Cultrex® PathClear, Reduced Growth Factor Basement Membrane Extract (BME—Bio-Techne, Minneapolis, MN) was added ([…]) to a 96-well plate and allowed to gel by incubating at 37° C. for ≥30 min. Cells were harvested, washed with DMEM (no glucose, no FBS, Gibco, Grand Island, NY) and centrifuged at 1500 g×5 mins. The media was aspirated and the remaining cell pellet flicked for about 10 s to ensure disaggregation.
(§5) Cells were diluted in assay media containing 2% BME, resuspended vigorously and 150 μL of the cell suspension was added on top of the gelled 3D BME layer. […] Cell numbers were determined in control vehicle (cells in media+0.1% DMSO), or treated wells and were measured on the indicated days by addition of 20 μL/well of MTS reagent (Cell Titer 96 Aqueous One, Promega, Madison, WI), followed by incubation at 37° C. for 2 h and absorbance measurements at 490 nm via plate reader (Molecular Devices, San Jose CA).
(§6) All conditions were conducted in quadruplicate and each experiment was carried out at least 3 separate times. All comparisons were made between treatment and vehicle control at concordant time points. Statistical analyses and non-linear regressions were derived using GraphPad Prism statistical software.

[2] = system: MG63.3 OS cell line; assay: 2D growth / cytotoxicity by MTT, MG63.3; conditions: for doses exhibiting cytotoxicity on 2D growth: 72 h
Method: (§7) The number of viable cells present in 2D culture was determined by MTT as previously reported. Briefly, cells were plated in 96-well plates at 2,000 cells/well and incubated at 37° C. for 24 h. After 24 h, the media was replaced with fresh media containing drugs at the desired concentrations (10 pM-10 μM) and incubated at 37° C. for 72 h. After 72 h, MTT reagent (20 L/well of a 5 mg/mL stock solution in sterile water; Sigma, St. Louis, MO) was added to each well and the plate was incubated at 37° C. for 2 h. DMSO ([…]) was then added to each well to solubilize the formazan crystals.
(§8) The resulting absorbance was measured at 490 nm via plate reader (Molecular Devices, San Jose, CA). DMSO (0.1%) was used as vehicle control, while 20 μM rapamycin was used as a positive cell-kill control. The experimental conditions were conducted in triplicate and each experiment was repeated three times. Regression lines and IC50's were calculated using a four-parameter variable slope nonlinear fit in GraphPad Prism.

[3] = system: MG63.3 human OS cells; assay: PuMA (ex vivo Pulmonary Metastasis Assay) with MG63.3; assay type: cell-based; conditions: single agents, two doses: 100 nM and 1 μM (rapamycin 100 nM and 1 pM [sic]; AZD8055 10 and 100 nM), replicates=3-5
Method: FIG. 23A is a schematic illustrating the metastatic progression of GFP-expressing OS cells conducted by injecting single cells via tail vein injection, followed by lung excision and insufflation 15 mins post-injection. The formation of multicellular colonies in the mouse lung microenvironment can be assessed 14-21 days post-injection.
Dissected lungs are then sectioned and grown on sponges.

[4] = system: MG63.3 OS cells; assay: in vitro SISGel assay with highly metastatic MG63.3 OS cells; assay type: cell-based, human; conditions: for lowest dose leading to appreciable inhibition of 3D growth: MG63.3 on SISGel, vs vehicle control, replicates=4; for activity on 3D SISGel compared with 2D: MG63.3, SISGel vs 2D MTT 72 h
Source text: SISGel is comprised of porcine small intestine submucosa gel that was originally developed at Oklahoma State U., by R. Hurst (CSO) and M. Ihnat (Consultant) (Bailey-Downs et al. 2014; Hurst et al. 2013, 2015, 2016). Unlike BME which is derived from a tumor-based matrix, SISGel is derived from healthy stroma and provides a suppressive “normal” ECM. […] Conditions have been identified that promoted suppressed ME-type profile (FIG. 2A). […] In addition to SISGel's complementarity to the BME assay, it can also be conducted in a 96-well format, enabling a high-throughput system to model suppressed/dormant cancer cells to further validate the screening results in BME.

[5] = system: K7M2 OS cell line; assay: 2D growth / cytotoxicity by MTT, K7M2; assay type: cell-based, mouse; conditions: for non-cytotoxic drug exposures in 2D: K7M2, MTT 72 h, 10 pM-100 μM
Method: as §7, with “After 24 h, the media was replaced with fresh media containing drugs at the desired concentrations (10 pM-10 μM) and incubated at 37° C. for 72 h.” left out
as §8

[6] = given alone at 2 mg/day, cited from earlier work
[7] = system: K7M2 OS cell line; assay: in vitro 3D BME assay with K7M2 OS cell line; assay type: cell-based, mouse
Source text: as §1, §2, §3, §4, §5, §6

[8] = Homo sapiens, MG-63.3, MG63.3 on 3D BME, vs vehicle control, replicates=4, read-out: lowest dose leading to appreciable inhibition of 3D growth
[9] = MG63.3 on 3D BME, vs vehicle control, replicates=4, read-out: lowest dose leading to appreciable inhibition of 3D growth

Structure (SMILES): COc1ccc(-c2ccc3c(N4CCOC[C@@H]4C)nc(N4CCOC[C@@H]4C)nc3n2)cc1CO [AZD8055]
- minimal effective concentration [1, 8]: 0.1 µM
- activity on 3D BME compared with 2D [1]: much stronger activity on 3D BME at slightly lower doses
- doses exhibiting cytotoxicity on 2D growth ([2]; human): > 100 nM
- inhibition of ME (loss of GFP signal in the lung tissue) [3]: strong inhibition of ME

Structure (SMILES): CO[C@H]1C[C@@H]2CC[C@@H](C)[C@@](O)(O2)C(=O)C(=O)N2CCCC[C@H]2C(=O)O[C@H]([C@H](C)C[C@@H]2CC[C@@H](O)[C@H](OC)C2)CC(=O)[C@H](C)/C=C(\C)[C@@H](O)[C@@H](OC)C(=O)[C@H](C)C[C@H](C)/C=C/C=C/C=C/1C [rapamycin]
- minimal effective concentration [1, 9]: 0.0005 µM
- lowest dose leading to appreciable inhibition of 3D growth [4]: 1000 pM
- doses leading to significant cytotoxicity on 2D growth ([5]; K7M2, MTT, 72 h, tested 15 nM-100 μM): ≥ 10 PM
- whole blood trough concentration mean ([6]; months 4 through 12): 19 ng/mL
- whole blood trough concentration range ([6]; months 4 through 12): 14 to 22 ng/mL
- whole blood trough concentration mean ([6]; year 3): 16 ng/mL
- whole blood trough concentration range ([6]; year 3): 11 to 22 ng/mL

Structure (SMILES): CNC(=O)c1cc(Oc2ccc(NC(=O)Nc3ccc(Cl)c(C(F)(F)F)c3)c(F)c2)ccn1 [regorafenib]
- inhibition at 1 µM ([1]; Homo sapiens, MG-63.3, 144 h, MG63.3, Day 6 growth by MTS, P<0.005): ~20%
- effect on metastatic phenotype / 3D growth in 3D BME (words) ([1]; MG63.3, Day 6 MTS, at or below 1 μM): consistently inhibit 3D growth across both cell lines
- inhibition in 3D BME at 100 nM ([1]; MG63.3, Day 6 growth by MTS): Significant inhibition was not seen
- effect on cell number in 2D monolayer ([2]; MG63.3, MTT, exposures up to 1 μM / assessed exposures): no effect on remaining cell number
- effect on metastatic phenotype / 3D growth in 3D BME (words) ([7]; K7M2, Day 6 MTS, at or below 1 μM): consistently inhibit 3D growth across both cell lines
- inhibition in 3D BME at 100 nM ([7]; K7M2, Day 6 growth by MTS): Significant inhibition was not seen
- inhibition at 1 µM ([7]; Mus musculus, 144 h, K7M2, Day 6 growth by MTS, P<0.005): ~20%
- non-cytotoxic drug exposures in 2D [5]: below 1 μM

Structure (SMILES): CO[C@H]1C[C@@H]2CC[C@@H](C)[C@@](O)(O2)C(=O)C(=O)N2CCCC[C@H]2C(=O)O[C@H]([C@H](C)C[C@@H]2CC[C@@H](OP(C)(C)=O)[C@H](OC)C2)CC(=O)[C@H](C)/C=C(\C)[C@@H](O)[C@@H](OC)C(=O)[C@H](C)C[C@H](C)/C=C/C=C/C=C/1C [ridaforolimus]
- minimal effective concentration [1, 8]: 0.001 µM
- activity on 3D BME compared with 2D [1]: much stronger activity on 3D BME at significantly lower doses
- doses exhibiting cytotoxicity on 2D growth ([2]; human): > 33000 nM
- activity on 3D SISGel compared with 2D [4]: much stronger activity on 3D SISGel at significantly lower doses
- lowest dose leading to appreciable inhibition of 3D growth [4]: 100 pM
- inhibition of ME (loss of GFP signal in the lung tissue) [3]: strong inhibition of ME

Structure (SMILES): CC(C)n1nc(-c2ccc3oc(N)nc3c2)c2c(N)ncnc21 [sapanisertib]
- minimal effective concentration [1, 8]: 0.001 µM
- doses exhibiting cytotoxicity on 2D growth ([2]; human): > 8 nM

Structure (SMILES): CN1CCN(CCOc2cc(OC3CCOCC3)c3c(Nc4c(Cl)ccc5c4OCO5)ncnc3c2)CC1 [saracatinib]
- non-cytotoxic drug exposures in 2D [5]: below 1 μM

Structure (SMILES): Cn1ncnc1[C@H]1c2n[nH]c(=O)c3cc(F)cc(c23)N[C@@H]1c1ccc(F)cc1 [talazoparib]
- minimal effective concentration [1, 8]: 0.0125 µM
- activity on 3D BME compared with 2D [1]: much stronger activity on 3D BME at significantly lower doses
- doses exhibiting cytotoxicity on 2D growth ([2]; human): > 100 nM

Structure (SMILES): C=CCNC1=C2C[C@@H](C)C[C@H](OC)[C@H](O)[C@@H](C)/C=C(\C)[C@H](OC(N)=O)[C@@H](OC)/C=C\C=C(/C)C(=O)NC(=CC1=O)C2=O [tanespimycin]
- minimal effective concentration ([1]; Homo sapiens, MG-63.3, read-out: lowest dose leading to appreciable inhibition of 3D growth): 0.025 µM
- doses exhibiting cytotoxicity on 2D growth ([2]; MG63.3, MTT, replicates=3): > 25 nM

Structure (SMILES): O=C(Cc1cccc(OC(F)(F)F)c1)Nc1ccc(CCCCc2nnc(NC(=O)Cc3ccccn3)s2)nn1 [telaglenastat]
- minimal effective concentration [1, 8]: 0.001 µM
- activity on 3D BME compared with 2D [1]: much stronger activity on 3D BME at significantly lower doses; also recorded: more active in 3D than in 2D
- minimal effective concentration [1, 9]: 0.001 µM
- growth in cell number in 3D BME at highest 2D inactive dose ([1]; telaglenastat 100 nM, MG63.3): 10%
- doses exhibiting cytotoxicity on 2D growth ([2]; human): > 100 nM
- effect in 2D at the same dose ([2]; telaglenastat 100 nM, MG63.3): no statistically significant inhibition; also recorded: inactive

Structure (SMILES): CO[C@H]1C[C@@H]2CC[C@@H](C)[C@@](O)(O2)C(=O)C(=O)N2CCCC[C@H]2C(=O)O[C@H]([C@H](C)C[C@@H]2CC[C@@H](OC(=O)C(C)(CO)CO)[C@H](OC)C2)CC(=O)[C@H](C)/C=C(\C)[C@@H](O)[C@@H](OC)C(=O)[C@H](C)C[C@H](C)/C=C/C=C/C=C/1C [temsirolimus]
- minimal effective concentration [1, 8]: 0.001 µM
- activity on 3D BME compared with 2D [1]: much stronger activity on 3D BME at significantly lower doses
- activity on 3D SISGel compared with 2D [4]: much stronger activity on 3D SISGel at significantly lower doses
- lowest dose leading to appreciable inhibition of 3D growth [4]: 1 pM
- inhibition of ME (loss of GFP signal in the lung tissue) [3]: strong inhibition of ME

Structure (SMILES): CC(C)[C@]12O[C@H]1[C@@H]1O[C@]13[C@]1(O[C@H]1C[C@H]1C4=C(CC[C@@]13C)C(=O)OC4)[C@@H]2O [triptolide]
- lowest dose leading to complete inhibition of 3D growth ([1]; MG63.3 on 3D BME, vs vehicle control, replicates=4): 1 nM
- cytotoxicity on 2D growth [2]: cytotoxicity at all doses tested

Structure (SMILES): CNC(=O)c1cccc(-c2ccc3c(N4CCOC[C@@H]4C)nc(N4CCOC[C@@H]4C)nc3n2)c1 [vistusertib]
- minimal effective concentration [1, 8]: 0.1 µM
- activity on 3D BME compared with 2D [1]: slightly stronger activity on 3D BME at 100 nM
- doses exhibiting cytotoxicity on 2D growth ([2]; human): > 0.64 nM
